Measurements reported in PubChem BioAssay (NCI).
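Method: 48-hour compound exposure of cells in 96-well plates, five concentrations, linear interpolation of endpoints. GI50 marks 50% less growth. Definition used: TGI = concentration required for complete inhibition of growth.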

How the values were obtained:
Experiment in all cases: NCI tumour cell line growth inhibition, 48 h
NCI-H460 lung = system: NCI-H460 lung
HOP-92 NSCLC = system: HOP-92 NSCLC
U251 CNS = system: U251 CNS
COLO 205 colon = system: COLO 205 colon
SF-539 CNS = system: SF-539 CNS
SNB-19 CNS = system: SNB-19 CNS
MDA-MB-435 = system: MDA-MB-435
SK-MEL-5 melanoma = system: SK-MEL-5 melanoma
KM12 colon = system: KM12 colon
ACHN renal = system: ACHN renal
RPMI-8226 leukemia = system: RPMI-8226 leukemia
HCC-2998 colon = system: HCC-2998 colon
SF-268 CNS = system: SF-268 CNS
HOP-62 NSCLC = system: HOP-62 NSCLC
M14 melanoma = system: M14 melanoma
MALME-3M melanoma = system: MALME-3M melanoma
NCI-H522 lung = system: NCI-H522 lung
HT29 colon = system: HT29 colon
HCT-116 colon = system: HCT-116 colon
SN12C renal = system: SN12C renal
CAKI-1 renal = system: CAKI-1 renal
SR leukemia = system: SR leukemia
IGROV1 ovarian = system: IGROV1 ovarian
NCI-H226 lung = system: NCI-H226 lung
RXF 393 renal = system: RXF 393 renal
MOLT-4 leukemia = system: MOLT-4 leukemia
HCT-15 colon = system: HCT-15 colon
EKVX NSCLC = system: EKVX NSCLC
UACC-257 melanoma = system: UACC-257 melanoma
UACC-62 melanoma = system: UACC-62 melanoma
HL-60(TB) leukemia = system: HL-60(TB) leukemia
TK-10 renal = system: TK-10 renal
OVCAR-4 ovarian = system: OVCAR-4 ovarian
CCRF-CEM leukemia = system: CCRF-CEM leukemia
HS 578T breast = system: HS 578T breast
PC-3 prostate = system: PC-3 prostate
T-47D breast = system: T-47D breast
SNB-75 CNS = system: SNB-75 CNS
NCI/ADR-RES ovarian = system: NCI/ADR-RES ovarian
SF-295 CNS = system: SF-295 CNS
BT-549 breast = system: BT-549 breast
786-0 renal = system: 786-0 renal
SK-OV-3 ovarian = system: SK-OV-3 ovarian
OVCAR-5 ovarian = system: OVCAR-5 ovarian
LOX IMVI melanoma = system: LOX IMVI melanoma
MDA-MB-231 breast = system: MDA-MB-231 breast
UO-31 renal = system: UO-31 renal
SW-620 colon = system: SW-620 colon
SK-MEL-28 melanoma = system: SK-MEL-28 melanoma
MCF7 breast = system: MCF7 breast
A498 renal = system: A498 renal
K-562 leukemia = system: K-562 leukemia
SK-MEL-2 melanoma = system: SK-MEL-2 melanoma
NCI-H23 lung = system: NCI-H23 lung
DU-145 prostate = system: DU-145 prostate
A549 NSCLC = system: A549 NSCLC

SMILES: CCOP(=O)(OCC)OC[C@]12CCC(C)(C)C=C1[C@H]1CC[C@@H]3[C@@]4(C)CC[C@H](OP(=O)(OCC)OCC)C(C)(C)[C@@H]4CC[C@@]3(C)[C@]1(C)CC2
- GI50 (NCI-H460 lung): 1.67 µM
- TGI (NCI-H460 lung): 3.21 µM
- GI50 (HOP-92 NSCLC): 1.16 µM
- TGI (HOP-92 NSCLC): 2.53 µM
- GI50 (U251 CNS): 1.58 µM
- TGI (U251 CNS): 3.17 µM
- GI50 (COLO 205 colon): 1.65 µM
- TGI (COLO 205 colon): 3.23 µM
- GI50 (SF-539 CNS): 1.66 µM
- TGI (SF-539 CNS): 3.12 µM
- GI50 (SNB-19 CNS): 1.55 µM
- TGI (SNB-19 CNS): 3.04 µM
- GI50 (MDA-MB-435): 1.59 µM
- TGI (MDA-MB-435): 2.99 µM
- GI50 (SK-MEL-5 melanoma): 1.68 µM
- TGI (SK-MEL-5 melanoma): 3.07 µM
- GI50 (KM12 colon): 1.56 µM
- TGI (KM12 colon): 2.93 µM
- GI50 (ACHN renal): 1.63 µM
- TGI (ACHN renal): 2.98 µM
- GI50 (RPMI-8226 leukemia): 0.547 µM
- TGI (RPMI-8226 leukemia): 3.43 µM
- GI50 (HCC-2998 colon): 1.39 µM
- TGI (HCC-2998 colon): 2.92 µM
- GI50 (SF-268 CNS): 1.55 µM
- TGI (SF-268 CNS): 3.02 µM
- GI50 (HOP-62 NSCLC): 1.61 µM
- TGI (HOP-62 NSCLC): 3.14 µM
- GI50 (M14 melanoma): 1.66 µM
- TGI (M14 melanoma): 3.34 µM
- GI50 (MALME-3M melanoma): 1.54 µM
- TGI (MALME-3M melanoma): 2.96 µM
- GI50 (NCI-H522 lung): 1.64 µM
- TGI (NCI-H522 lung): 3.16 µM
- GI50 (HT29 colon): 1.36 µM
- TGI (HT29 colon): 2.78 µM
- GI50 (HCT-116 colon): 1.54 µM
- TGI (HCT-116 colon): 3.09 µM
- GI50 (SN12C renal): 1.35 µM
- TGI (SN12C renal): 2.85 µM
- GI50 (CAKI-1 renal): 0.97 µM
- TGI (CAKI-1 renal): 2.18 µM
- GI50 (SR leukemia): 0.866 µM
- TGI (SR leukemia): 5.56 µM
- GI50 (IGROV1 ovarian): 1.72 µM
- TGI (IGROV1 ovarian): 3.26 µM
- GI50 (NCI-H226 lung): 1.65 µM
- TGI (NCI-H226 lung): 3.6 µM
- GI50 (RXF 393 renal): 1.52 µM
- TGI (RXF 393 renal): 3.08 µM
- GI50 (MOLT-4 leukemia): 1.2 µM
- TGI (MOLT-4 leukemia): 3.66 µM
- GI50 (HCT-15 colon): 1.43 µM
- TGI (HCT-15 colon): 2.87 µM
- GI50 (EKVX NSCLC): 1.48 µM
- TGI (EKVX NSCLC): 2.91 µM
- GI50 (UACC-257 melanoma): 1.56 µM
- TGI (UACC-257 melanoma): 3.08 µM
- GI50 (UACC-62 melanoma): 1.11 µM
- TGI (UACC-62 melanoma): 2.49 µM
- GI50 (HL-60(TB) leukemia): 0.611 µM
- TGI (HL-60(TB) leukemia): 3.02 µM
- GI50 (TK-10 renal): 1.58 µM
- TGI (TK-10 renal): 2.98 µM
- GI50 (OVCAR-4 ovarian): 1.91 µM
- TGI (OVCAR-4 ovarian): 4.01 µM
- GI50 (CCRF-CEM leukemia): 2.3 µM
- TGI (CCRF-CEM leukemia): 8.87 µM
- GI50 (HS 578T breast): 1.76 µM
- TGI (HS 578T breast): 4.22 µM
- GI50 (PC-3 prostate): 0.673 µM
- TGI (PC-3 prostate): 2.26 µM
- GI50 (T-47D breast): 1.53 µM
- TGI (T-47D breast): 3.26 µM
- GI50 (SNB-75 CNS): 1.37 µM
- TGI (SNB-75 CNS): 2.69 µM
- GI50 (NCI/ADR-RES ovarian): 1.57 µM
- TGI (NCI/ADR-RES ovarian): 3.29 µM
- GI50 (SF-295 CNS): 1.41 µM
- TGI (SF-295 CNS): 2.77 µM
- GI50 (BT-549 breast): 1.46 µM
- TGI (BT-549 breast): 2.93 µM
- GI50 (786-0 renal): 1.6 µM
- TGI (786-0 renal): 3.08 µM
- GI50 (SK-OV-3 ovarian): 1.53 µM
- TGI (SK-OV-3 ovarian): 2.96 µM
- GI50 (OVCAR-5 ovarian): 1.48 µM
- TGI (OVCAR-5 ovarian): 2.86 µM
- GI50 (LOX IMVI melanoma): 1.3 µM
- TGI (LOX IMVI melanoma): 2.66 µM
- GI50 (MDA-MB-231 breast): 1.41 µM
- TGI (MDA-MB-231 breast): 3.04 µM
- GI50 (UO-31 renal): 1.36 µM
- TGI (UO-31 renal): 2.68 µM
- GI50 (SW-620 colon): 1.64 µM
- TGI (SW-620 colon): 3.14 µM
- GI50 (SK-MEL-28 melanoma): 1.54 µM
- TGI (SK-MEL-28 melanoma): 2.91 µM
- GI50 (MCF7 breast): 1.48 µM
- TGI (MCF7 breast): 3 µM
- GI50 (A498 renal): 1.53 µM
- TGI (A498 renal): 2.9 µM
- GI50 (K-562 leukemia): 0.388 µM
- TGI (K-562 leukemia): 3.13 µM
- GI50 (SK-MEL-2 melanoma): 1.67 µM
- TGI (SK-MEL-2 melanoma): 3.12 µM
- GI50 (NCI-H23 lung): 1.19 µM
- TGI (NCI-H23 lung): 2.81 µM
- GI50 (DU-145 prostate): 1.67 µM
- TGI (DU-145 prostate): 3.05 µM
- GI50 (A549 NSCLC): 1.53 µM
- TGI (A549 NSCLC): 3.25 µM
